Test system: layer II-III pyramidal neurons of GPR158 KO mice
Test: Whole cell recordings, layer II-III neurons, GPR158 KO mice
Assay type: cell-based, mouse
Settings: for rheobase current / number of action potentials fired / resting membrane potential: 1 mM, GPR158 KO; for number of action potentials fired: 200 pA current ramp; for resting membrane potential: layer II-III
Method: FIGS. 14A-14H. Effect of glycine on neuronal excitability. A) Schematic of the electrophysiological recordings in slice preparation targeting mPFC neurons of layer II-III. Experiments were conducted with a cocktail of synaptic blockers: picrotoxin (100 μM) (blockade of GABAA receptor chloride channels), strychnine (1 μM) (antagonist of glycine and acetylcholine ionotropic receptors), CNQX (20 μM) (AMPA receptors antagonist), and APV (50 μM) (NMDAR antagonist). B) Representative traces of voltage responses to a 200 pA current ramp injection under control conditions and after bath application of glycine (1 mM) in WT mice. C) Quantification of changes in excitability by number of action potentials fired in response to 200 pA current ramp (n=8 neurons from 5 mice). Nonparametric t-test; Wilcoxon test, **p<0.01. D) Quantification of changes in excitability by rheobase current under control condition and glycine application (n=8 neurons from 5 mice). Nonparametric t-test; Wilcoxon test, **p<0.01. E) Representative traces of voltage responses to a 200 pA current ramp injection obtained from layer II-III pyramidal neurons in GPR158 KO mice under control conditions and during bath application of glycine (1 mM). F) Quantification of changes in excitability by number of action potentials fired in response to 200 pA current ramp (n=4 neurons/3 mice). Nonparametric t-test; Wilcoxon test, ns=p>0.05. G) Quantification of changes in excitability by rheobase current under control condition and glycine application (n=4 neurons/3 mice). Nonparametric t-test; Wilcoxon test, ns=p>0.05. H) Schematic representation of the proposed mechanism of glycine effects on mGlyR. In 14C, 14D, 14F, and 14G, solid circles (Ctrl), circles with no fill (Glycine), columns with no fill (Ctrl), and columns with dotted fill (Glycine).
FIGS. 15A-15H. Effect of glycine and taurine on excitability of layer V neurons and membrane properties of layer II/III neurons in wild type and GPR158 knockout mice. A) Representative traces of voltage responses to a 200 pA current ramp injection obtained from layer V pyramidal neurons in WT mice under control conditions and during bath application of glycine (1 mM). B) Quantification of glycine effects on neuronal excitability by number of action potentials fired in response to 200 pA current ramp under control condition and glycine application (n=4 neurons/3 mice). Nonparametric t-test; Wilcoxon test, ns=p>0.05. C) Quantification of glycine effects on neuronal excitability by rheobase current under control condition and glycine application (n=4 neurons/3 mice). Nonparametric t-test; Wilcoxon test, ns=p>0.05. D) Resting membrane potential of layer V pyramidal neurons in WT mice under control conditions and during bath application of glycine (n=4 neurons/3 mice). Nonparametric t-test; Wilcoxon test, ns=p>0.05. E) Resting membrane potential of layer II-III pyramidal neurons in WT mice under control conditions and during bath application of glycine (n=6 neurons/4 mice). Nonparametric t-test; Wilcoxon test, ns=p>0.05. F) Resting membrane potential of layer II-III pyramidal neurons in GPR158 KO mice under control conditions and during bath application of glycine (n=4 neurons/3 mice). Nonparametric t-test; Wilcoxon test, ns=p>0.05. G) Resting membrane potential under control conditions and during bath application of taurine (n=9 neurons/5 mice). Paired t-test, p=0.4809. H) Resting membrane potential under control conditions and during bath application of taurine (n=5 neurons/4 mice) Nonparametric t-test; Wilcoxon test, ns=p>0.05, p>0.9999. In FIGS. 15B, 15C, 15D, 15E, and 15F, solid circles (Ctrl), circles with angled-line fill (Glycine), columns with no fill (Ctrl), columns with angled-line fill (Glycine). In 15G and 15H, solid circles (Ctrl), circles with no fill (Taurine), columns with no fill (Ctrl), columns with dotted fill (Taurine).
FIGS. 16A-16F Effect of taurine on neuronal excitability of layer II/III neurons. […]

| SMILES | rheobase current | number of action potentials fired | resting membrane potential | excitability of layer II-III neurons (Gpr158 KO, glycine 1 mM) |
| --- | --- | --- | --- | --- |
| NCC(=O)O [glycine] | ns | ns | ns | failed to alter excitability |
| NCCS(=O)(=O)O [taurine, 2-aminoethanesulfonic acid] | ns | ns | ns |  |

— US20260376293A1, “METHODS FOR STUDYING GPR158 PHARMACOLOGY AND IDENTIFICATION OF ITS LIGANDS” (UNIVERSITY OF FLORIDA RESEARCH FOUNDATION, INCORPORATED, priority 2022, published 2026)
